Experimental findings from patent publication US8163793B2, “Proline derivatives” (Hoffman-La Roche Inc., priority 2009, dated 2012) are described below.

A word on the IC50: it is the point on the concentration scale where inhibition reaches its midpoint.

One assay addresses Cat L (UniProt P07711). Description: Cathepsin enzyme inhibition assay (fluorogenic peptide substrate Z-Val-Val-Arg-AMC), Cathepsin L. It counts as biochemical, human and mouse. To be noted: enzyme 1 nM, substrate 20 μM, pH 6.5; read-out: CatL IC50. The method in brief: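 Cathepsin L at 1 nM was mixed with compound, then started with 20 μM Z-Val-Val-Arg-AMC in pH 6.5 potassium phosphate with EDTA, Triton X-100 and 5 mM DTT. AMC fluorescence (ex 360/em 465 nm) was followed over 20 min. IC50 is given in μM.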

For a further assay, the target named is Cathepsin S (UniProt P25774). The assay can be described thus: Cathepsin enzyme inhibition assay (fluorogenic peptide substrate Z-Val-Val-Arg-AMC), Cathepsin S. The format is biochemical, human and mouse. To be noted: enzyme 1 nM, substrate 20 μM, pH 6.5; read-out: CatS IC50. In short, it runs like this: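 Human or mouse cathepsin S (1 nM) was run in 100 mM potassium phosphate pH 6.5 with 5 mM EDTA, 0.001% Triton X-100 and 5 mM DTT. The rise in AMC fluorescence from cleavage was measured, and IC50 values were calculated by standard methods and expressed in μM.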

`N#CC1(NC(=O)[C@@H]2C[C@@H](S(=O)(=O)c3ccccc3Cl)CN2C=O)CC1` [Example 78, (2S,4R)-4-(2-Chloro-benzenesulfonyl)-1-formyl-pyrrolidine-2-carboxylic acid (1-cyano-cyclopropyl)-amide]: the IC50 was at least 25 µM on Cat L and 0.0185 µM at Cathepsin S.

Turning to `CC(=O)N1C[C@H](S(=O)(=O)c2ccccc2Cl)C[C@H]1C(=O)NC1(C#N)CC1` [Example 79, (2S,4R)-1-Acetyl-4-(2-chloro-benzenesulfonyl)-pyrrolidine-2-carboxylic acid (1-cyano-cyclopropyl)-amide], the IC50 on Cat L amounted to 29.7 µM; on Cathepsin S, 0.0014 µM.

With `N#CC1(NC(=O)[C@@H]2C[C@@H](S(=O)(=O)c3ccccc3Cl)CN2C(=O)C(F)(F)F)CC1` [Example 80, (2S,4R)-4-(2-Chloro-benzenesulfonyl)-1-(2,2,2-trifluoro-acetyl)-pyrrolidine-2-carboxylic acid (1-cyano-cyclopropyl)-amide], the IC50 at Cat L was 9.77 µM; at Cathepsin S, 0.0008 µM.

Take `CN1CCC[C@H]1C(=O)N1C[C@H](S(=O)(=O)c2ccccc2Cl)C[C@H]1C(=O)NC1(C#N)CC1` [Example 81, (R)-4-(2-Chloro-benzenesulfonyl)-1-((S)-1-methyl-pyrrolidine-2-carbonyl)-pyrrolidine-2-carboxylic acid (1-cyano-cyclopropyl)-amide formiate]: the half-maximal inhibitory concentration (IC50) amounted to 6.03 µM on Cat L and 0.0032 µM at Cathepsin S.

For `CN1CCC(C(=O)N2C[C@H](S(=O)(=O)c3ccccc3Cl)C[C@H]2C(=O)NC2(C#N)CC2)CC1` [Example 82, (2S,4R)-4-(2-Chloro-benzenesulfonyl)-1-(1-methyl-piperidine-4-carbonyl)-pyrrolidine-2-carboxylic acid (1-cyano-cyclopropyl)-amide], the IC50 on Cat L amounted to 6.8 µM; on Cathepsin S, 0.0087 µM.

In the case of `CCN1C[C@H](S(=O)(=O)c2ccccc2Cl)C[C@H]1C(=O)NC1(C#N)CC1` [Example 83, (2S,4R)-4-(2-Chloro-benzenesulfonyl)-1-ethyl-pyrrolidine-2-carboxylic acid (1-cyano-cyclopropyl)-amide], the concentration for half-maximal inhibition (IC50) at Cat L stood at 62.1 µM; on Cathepsin S, 0.0305 µM.

With `N#CC1(NC(=O)[C@@H]2C[C@@H](S(=O)(=O)c3ccccc3Cl)CN2C2CCC2)CC1` [Example 84, (2S,4R)-4-(2-Chloro-benzenesulfonyl)-1-cyclobutyl-pyrrolidine-2-carboxylic acid (1-cyano-cyclopropyl)-amide], the IC50 is at least 25 µM at Cat L and 0.055 µM at Cathepsin S.

With `N#CC1(NC(=O)[C@@H]2C[C@@H](S(=O)(=O)c3ccccc3Cl)CN2C2CCCCC2)CC1` [Example 85, (2S,4R)-4-(2-Chloro-benzenesulfonyl)-1-cyclohexyl-pyrrolidine-2-carboxylic acid (1-cyano-cyclopropyl)-amide], the IC50 was at least 25 µM at Cat L and 0.0094 µM on Cathepsin S.

In the case of `N#CC1(NC(=O)[C@@H]2C[C@@H](S(=O)(=O)c3ccccc3Cl)CN2Cc2ccncc2)CC1` [Example 86, (2S,4R)-4-(2-Chloro-benzenesulfonyl)-1-pyridin-4-ylmethyl-pyrrolidine-2-carboxylic acid (1-cyano-cyclopropyl)-amide], the half-inhibitory concentration (IC50) on Cat L was 14.6 µM; at Cathepsin S it was 0.023 µM.

Consider `N#CC1(NC(=O)[C@@H]2C[C@@H](S(=O)(=O)c3ccccc3Cl)CN2CCc2ccccc2)CC1` [Example 87, (2S,4R)-4-(2-Chloro-benzenesulfonyl)-1-phenethyl-pyrrolidine-2-carboxylic acid (1-cyano-cyclopropyl)-amide], for which the IC50 at Cat L was determined as 4.72 µM; at Cathepsin S, 0.0375 µM.

`N#CC1(NC(=O)[C@@H]2C[C@@H](S(=O)(=O)c3ccccc3Cl)CN2CC(F)F)CC1` [Example 88, (2S,4R)-4-(2-Chloro-benzenesulfonyl)-1-(2,2-difluoro-ethyl)-pyrrolidine-2-carboxylic acid (1-cyano-cyclopropyl)-amide]: the figures for the IC50 at Cat L and at Cathepsin S were at least 25 µM and 0.275 µM, respectively.

On to `N#CC1(NC(=O)[C@@H]2C[C@@H](S(=O)(=O)c3ccccc3Cl)CN2CC(F)(F)F)CC1` [Example 89, (2S,4R)-4-(2-Chloro-benzenesulfonyl)-1-(2,2,2-trifluoro-ethyl)-pyrrolidine-2-carboxylic acid (1-cyano-cyclopropyl)-amide], for which the concentration for half-maximal inhibition (IC50) at Cat L was at least 25 µM; on Cathepsin S, 0.11 µM.

Consider `CC(CN1C[C@H](S(=O)(=O)c2ccccc2Cl)C[C@H]1C(=O)NC1(C#N)CC1)C(F)(F)F` (stereo partly drawn) [Example 90, (2S,4R)-4-(2-Chloro-benzenesulfonyl)-1-(3,3,3-trifluoro-2-methyl-propyl)-pyrrolidine-2-carboxylic acid (1-cyano-cyclopropyl)-amide], for which the concentration for half-maximal inhibition (IC50) on Cat L is at least 25 µM; on Cathepsin S, 0.0845 µM.

Take `N#CC1(NC(=O)[C@@H]2C[C@@H](S(=O)(=O)c3ccccc3Cl)CN2CCC(F)(F)F)CC1` [Example 91, (2S,4R)-4-(2-Chloro-benzenesulfonyl)-1-(3,3,3-trifluoro-propyl)-pyrrolidine-2-carboxylic acid (1-cyano-cyclopropyl)-amide]: the half-maximal inhibitory concentration (IC50) at Cat L is at least 25 µM; at Cathepsin S, 0.12 µM.

On to `N#CC1(NC(=O)[C@@H]2C[C@@H](S(=O)(=O)c3ccccc3Cl)CN2CC(F)(F)C(F)(F)F)CC1` [Example 92, (2S,4R)-4-(2-Chloro-benzenesulfonyl)-1-(2,2,3,3,3-pentafluoro-propyl)-pyrrolidine-2-carboxylic acid (1-cyano-cyclopropyl)-amide], for which the half-inhibitory concentration (IC50) worked out at 61.7 µM at Cat L and 0.041 µM on Cathepsin S.

As for `CN1C[C@H](S(=O)(=O)c2ccccc2Cl)C[C@H]1C(=O)NC1(C#N)CC1` [Example 93, (2S,4R)-4-(2-Chloro-benzenesulfonyl)-1-methyl-pyrrolidine-2-carboxylic acid (1-cyano-cyclopropyl)-amide], the IC50 is at least 25 µM at Cat L and 0.966 µM at Cathepsin S.

Consider `CN1C[C@H](S(=O)(=O)c2ccccc2Cl)C[C@H]1C(=O)N(C)C1(C#N)CC1` [Example 94, (2S,4R)-4-(2-Chloro-benzenesulfonyl)-1-methyl-pyrrolidine-2-carboxylic acid (1-cyano-cyclopropyl)-methyl-amide Formiate], for which the concentration for half-maximal inhibition (IC50) worked out at 40 µM at Cat L and 0.945 µM at Cathepsin S.

As for `COC(=O)N1C[C@H](S(=O)(=O)c2ccccc2Cl)C[C@H]1C(=O)NC1(C#N)CC1` [Example 95, (2S,4R)-4-(2-Chloro-benzenesulfonyl)-2-(1-cyano-cyclopropylcarbamoyl)-pyrrolidine-1-carboxylic acid methyl ester], the IC50 was at least 25 µM at Cat L and 0.0076 µM on Cathepsin S.

Regarding `CCOC(=O)N1C[C@H](S(=O)(=O)c2ccccc2Cl)C[C@H]1C(=O)NC1(C#N)CC1` [Example 96, (2S,4R)-4-(2-Chloro-benzenesulfonyl)-2-(1-cyano-cyclopropylcarbamoyl)-pyrrolidine-1-carboxylic acid ethyl ester], the half-maximal inhibitory concentration (IC50) on Cat L was determined as 31.5 µM; on Cathepsin S, 0.0026 µM.

Turning to `CC(C)OC(=O)N1C[C@H](S(=O)(=O)c2ccccc2Cl)C[C@H]1C(=O)NC1(C#N)CC1` [Example 97, (2S,4R)-4-(2-Chloro-benzenesulfonyl)-2-(1-cyano-cyclopropylcarbamoyl)-pyrrolidine-1-carboxylic acid Isopropyl Ester], the IC50 stood at 22.8 µM at Cat L and 0.0024 µM on Cathepsin S.

Take `N#CC1(NC(=O)[C@@H]2C[C@@H](S(=O)(=O)c3ccccc3Cl)CN2C(=O)OC2CCCC2)CC1` [Example 98, (2S,4R)-4-(2-Chloro-benzenesulfonyl)-2-(1-cyano-cyclopropylcarbamoyl)-pyrrolidine-1-carboxylic acid Cyclopentyl Ester]: the IC50 on Cat L is 15.7 µM; at Cathepsin S, 0.0011 µM.

Take `N#CC1(NC(=O)[C@@H]2C[C@@H](S(=O)(=O)c3ccccc3Cl)CN2C(=O)Oc2ccc(F)cc2)CC1` [Example 99, (2S,4R)-4-(2-Chloro-benzenesulfonyl)-2-(1-cyano-cyclopropylcarbamoyl)-pyrrolidine-1-carboxylic acid 4-fluoro-phenyl Ester]: the IC50 was at least 25 µM at Cat L and 0.0026 µM at Cathepsin S.

Take `N#CC1(NC(=O)[C@@H]2C[C@@H](S(=O)(=O)c3ccccc3C(F)(F)F)CN2C=O)CC1` [Example 100, (2S,4R)-1-Formyl-4-(2-trifluoromethyl-benzenesulfonyl)-pyrrolidine-2-carboxylic acid (1-cyano-cyclopropyl)-amide]: the half-inhibitory concentration (IC50) at Cat L was at least 25 µM; on Cathepsin S, 0.0077 µM.

In the case of `CC(=O)N1C[C@H](S(=O)(=O)c2ccccc2C(F)(F)F)C[C@H]1C(=O)NC1(C#N)CC1` [Example 101, (2S,4R)-1-Acetyl-4-(2-trifluoromethyl-benzenesulfonyl)-pyrrolidine-2-carboxylic acid (1-cyano-cyclopropyl)-amide], the IC50 is at least 25 µM on Cat L and 0.0067 µM at Cathepsin S.

For `N#CC1(NC(=O)[C@@H]2C[C@@H](S(=O)(=O)c3ccccc3C(F)(F)F)CN2C(=O)C(F)(F)F)CC1` [Example 102, (2S,4R)-1-(2,2,2-Trifluoro-acetyl)-4-(2-trifluoromethyl-benzenesulfonyl)-pyrrolidine-2-carboxylic acid (1-cyano-cyclopropyl)-amide], the IC50 is at least 25 µM at Cat L and 0.0036 µM on Cathepsin S.

Consider `CCC(=O)N1C[C@H](S(=O)(=O)c2ccccc2C(F)(F)F)C[C@H]1C(=O)NC1(C#N)CC1` [Example 103, (2S,4R)-1-Propionyl-4-(2-trifluoromethyl-benzenesulfonyl)-pyrrolidine-2-carboxylic acid (1-cyano-cyclopropyl)-amide], for which the IC50 on Cat L is at least 25 µM; at Cathepsin S it was 0.0016 µM.
